Laboratory results taken from patent US20240408180A1, “IONIC LIQUIDS FOR DRUG DELIVERY” (PRESIDENT AND FELLOWS OF HARVARD COLLEGE, priority 2021, published 2024).

Columns and labels:
[1] = target: Type I Human Collagen (human) (UniProt P02452); test: fluorescence polarization of Cy5.5-insulin mixed with Type I human collagen
[2] = target: Type I Human Collagen (human) (UniProt P02452); test: dynamic light scattering after mixing the insulin formulation with collagen
[3] = target: Type I Human Collagen (human) (UniProt P02452); test: dynamic light scattering time course after mixing with collagen
insulin [4] = target: T1, insulin (Homo sapiens, UniProt P01308); test: Circular dichroism of insulin secondary structure in ILs; type: physicochemical; details: one hour at room temperature and at 37 C; insulin ~6 U/mL (0.2 mg/mL); versus saline negative control
T1 construct: in this case insulin around 5.8 kDa; purchased Sigma Aldrich (St. Louis, MO)
T1 sequence (P01308 25-54 limits assumed, species assumed): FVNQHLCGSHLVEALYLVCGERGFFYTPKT
T1 sequence (P01308 90-110 limits assumed, species assumed): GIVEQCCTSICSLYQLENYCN
Experimental: Circular dichroism was used to assess insulin secondary structure (FIG. 2). The experiment was performed after incubation at room temperature and at 37° C. (physiological temperature) for one hour. This was done to assess whether the heat change associated with subcutaneous injection may affect the insulin structure. […] “aCG” refers to acetylcholine glycolic acid and “aCH” refers to acetylcholine hexenoic acid. Insulin concentration was ˜6 U/mL (0.2 mg/mL).

[5] = In vivo PK of insulin in ILs after subcutaneous injection; details: rats, insulin 1 U/kg, non-fasted
rituximab [6] = test: SPADE-mAb stability by SDS-PAGE; type: physicochemical; details: for rituximab stability by SDS-PAGE: 37 C for 2 and 24 hours
Experimental: (§1) Described herein the exploration of whether SPADE can also enhance the absorption of a large protein biologic, namely monoclonal antibody rituximab (SPADE-mAb), that would benefit from greater absorption from subcutaneous administration. Due to the clinical requirement of higher dosing for subcutaneous antibody formulation compared to insulin, we first assessed DES concentration for stable SPADE formulation with rituximab using SDS-PAGE and CD. Formulations were prepared with various DES concentrations and consistent rituximab concentrations and incubated at 37° C. for 2 and 24 hours. After incubation, the samples were dialyzed against sodium phosphate to remove DES, and the resulting samples were diluted to the same concentration via UV-Vis spectrophotometry before SDS-PAGE and CD analyses. […] To further confirm this CD was used to assess the secondary structure of the samples that were incubated for 24 hours.
(§2) Protein Stability Assessment Using Circular Dichroism and SDS-PAGE. Insulin and antibody formulations were incubated at 37° C. for one hour and subsequently dialyzed against 10 mM Sodium Phosphate pH 7.4. In preparation for circular dichroism (CD) and SDS-PAGE, the post-dialysis concentration was measured with UV Spectrophotometry (Thermo Scientific NanoDrop One) and adjusted to 200 μg/mL. CD was performed by loading quartz cuvettes (Starna Cells Spectrosil Quartz 1-Q-1), with 200 μL of the sample, into a CD spectrophotometer (Jasco J-815). Mean ellipticity was measured from 190 to 250 nm.
To assess antibody aggregation, SDS-PAGE was performed using vertical gel electrophoresis (BioRad Mini-PROTEAN Tetra Cell) loaded with precast polyacrylamide gels (BioRad TGX 4-15%) according to the manufacturer protocol. To form SDS complexes, samples were incubated in 1× Lammeli buffer for 10 minutes at 70° C. before loading in the gel. After 30 minutes of electrophoresis, the gel was removed and protein bands stained with Coumassie dye.

Type I human collagen = target: T2, Type I human collagen (Homo sapiens, UniProt P02452+P08123); test: Fluorescence polarization of Cy5.5-labeled insulin mixed with collagen; type: binding; details: Cy5.5-labeled insulin in aCH versus saline control
T2 construct: purchased Advanced BioMatrix (Carlsbad, CA)
T2 sequence (P02452 162-1218 limits assumed): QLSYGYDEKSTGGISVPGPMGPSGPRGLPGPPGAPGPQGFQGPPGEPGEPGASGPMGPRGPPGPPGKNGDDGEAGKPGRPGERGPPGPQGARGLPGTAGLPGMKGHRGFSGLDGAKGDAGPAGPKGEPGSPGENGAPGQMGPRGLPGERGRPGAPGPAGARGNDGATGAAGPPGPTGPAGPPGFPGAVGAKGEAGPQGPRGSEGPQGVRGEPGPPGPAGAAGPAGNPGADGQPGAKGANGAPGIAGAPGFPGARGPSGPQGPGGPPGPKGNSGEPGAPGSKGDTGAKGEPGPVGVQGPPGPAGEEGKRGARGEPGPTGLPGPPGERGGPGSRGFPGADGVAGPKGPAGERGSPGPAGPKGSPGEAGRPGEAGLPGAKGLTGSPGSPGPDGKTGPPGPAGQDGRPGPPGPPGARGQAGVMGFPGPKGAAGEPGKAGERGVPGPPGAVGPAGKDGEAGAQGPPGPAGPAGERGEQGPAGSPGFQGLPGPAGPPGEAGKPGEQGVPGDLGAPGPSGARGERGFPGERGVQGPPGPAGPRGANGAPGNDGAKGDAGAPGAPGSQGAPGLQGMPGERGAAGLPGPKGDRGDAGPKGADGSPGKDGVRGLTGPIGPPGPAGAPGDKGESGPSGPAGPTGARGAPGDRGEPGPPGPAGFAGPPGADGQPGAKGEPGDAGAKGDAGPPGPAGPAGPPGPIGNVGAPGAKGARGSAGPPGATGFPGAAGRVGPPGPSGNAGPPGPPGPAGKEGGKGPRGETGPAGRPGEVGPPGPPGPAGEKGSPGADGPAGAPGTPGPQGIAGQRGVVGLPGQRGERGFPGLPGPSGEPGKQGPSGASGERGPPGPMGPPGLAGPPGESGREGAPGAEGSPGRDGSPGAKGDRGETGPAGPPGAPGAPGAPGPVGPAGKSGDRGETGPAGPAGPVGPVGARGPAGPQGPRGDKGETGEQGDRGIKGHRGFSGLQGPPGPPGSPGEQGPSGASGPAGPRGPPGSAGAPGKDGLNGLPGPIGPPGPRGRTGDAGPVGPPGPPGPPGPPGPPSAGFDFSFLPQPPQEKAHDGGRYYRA
T2 sequence (P08123 80-1119 limits assumed): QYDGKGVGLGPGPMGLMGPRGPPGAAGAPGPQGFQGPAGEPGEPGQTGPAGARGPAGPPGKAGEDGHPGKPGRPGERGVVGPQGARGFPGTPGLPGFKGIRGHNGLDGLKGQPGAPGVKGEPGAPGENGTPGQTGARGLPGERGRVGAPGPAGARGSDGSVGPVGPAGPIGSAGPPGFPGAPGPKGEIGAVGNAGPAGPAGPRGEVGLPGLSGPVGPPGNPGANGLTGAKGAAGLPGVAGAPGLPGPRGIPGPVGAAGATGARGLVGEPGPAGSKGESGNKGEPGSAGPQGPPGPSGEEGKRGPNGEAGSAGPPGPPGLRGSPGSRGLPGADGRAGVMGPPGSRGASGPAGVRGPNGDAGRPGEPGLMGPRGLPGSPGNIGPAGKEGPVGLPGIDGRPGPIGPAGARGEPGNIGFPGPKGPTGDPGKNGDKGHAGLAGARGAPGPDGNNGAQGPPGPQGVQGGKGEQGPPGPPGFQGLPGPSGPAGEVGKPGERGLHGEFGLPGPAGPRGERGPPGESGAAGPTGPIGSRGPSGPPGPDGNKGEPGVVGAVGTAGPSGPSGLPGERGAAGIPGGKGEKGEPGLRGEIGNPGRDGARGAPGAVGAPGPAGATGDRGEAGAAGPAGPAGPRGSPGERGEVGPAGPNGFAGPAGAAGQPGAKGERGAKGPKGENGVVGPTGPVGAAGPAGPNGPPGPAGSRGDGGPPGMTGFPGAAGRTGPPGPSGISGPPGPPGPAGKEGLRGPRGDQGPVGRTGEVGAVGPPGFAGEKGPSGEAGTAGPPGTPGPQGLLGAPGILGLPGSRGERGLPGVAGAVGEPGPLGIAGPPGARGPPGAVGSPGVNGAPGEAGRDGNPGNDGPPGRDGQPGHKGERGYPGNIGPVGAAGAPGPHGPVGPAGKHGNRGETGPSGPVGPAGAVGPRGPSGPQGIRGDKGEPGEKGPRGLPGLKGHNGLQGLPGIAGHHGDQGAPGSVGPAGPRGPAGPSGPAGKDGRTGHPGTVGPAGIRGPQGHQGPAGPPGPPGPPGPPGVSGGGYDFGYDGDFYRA
Experimental: The ability of SPADE to mitigate the interactions of proteins with ECM was assessed using the lead DES, aCH. A schematic representation of the hypothesized mechanism is depicted in FIG. 8A. SPADE (right) is hypothesized to decrease non-specific binding between administered therapeutic proteins and subcutaneous extracellular proteins such as collagen to allow for faster and greater absorption of protein biologics. To test this hypothesis, fluorescence polarization (FP) was performed and dynamic light scattering (DLS) utilized to determine the degree of collagen-insulin association. […] The average polarization was 1.5 times higher for the control group than the SPADE group. To further confirm the FP results and compare against Humalog, DLS was used to measure the average particle diameter (z-avg) after mixing insulin formulations with collagen, as the z-avg for insulin-bound collagen would increase with fewer unbound insulin molecules remaining and only the collagen or collagen-insulin complex being detected. The initial average z-avg for both the Humalog- and SPADE-insulin-collagen mixtures were approximately 100 nm. […]
Physical stability of the formulations in the presence of collagen was further assessed using fluorescence polarization (FP). […] When insulin is fluorescently labeled and excited with polarized light the perpendicular and parallel polarized light emission can be measured. […]

rituximab [7] = test: SPADE-mAb stability by circular dichroism; type: physicochemical; details: 37 C for 24 hours
Experimental: as §1
as §2, with “CD was performed by loading quartz cuvettes (Starna Cells Spectrosil Quartz 1-Q-1), with 200 μL of the sample, into a CD spectrophotometer (Jasco J-815).” left out

insulin [8] = target: T1, insulin; test: Circular dichroism of insulin-DES formulations; type: physicochemical; details: 37 C for two hours
Experimental: (§3) The final screening was performed to assess cold-chain stability and confirm monomer conformational stability. […] The stability of hexenoate-based formulations was further confirmed by assessing the protein's secondary structure through circular dichroism (CD). […] CD spectra integrity was also confirmed by measuring the high-tension voltage, which was maintained below 500 V for the relevant insulin CD wavelengths (FIG. 14).
as §2, with “Insulin and antibody formulations were incubated at 37° C. for one hour and subsequently dialyzed against 10 mM Sodium Phosphate pH 7.4.” left out

antibody [9] = test: Antibody stability by circular dichroism; type: physicochemical; details: one hour at room temperature; versus fresh antibody control
Experimental: (§4) Antibody stability was next tested. Circular dichroism and SDS-PAGE were used to assess antibody stability (FIG. 5). […] Additionally, SDS-PAGE was used to assess whether acetylcholine caused aggregation (of particular importance for large beta-sheet biologics like antibodies). […] Both CD and SDS-PAGE were performed after incubation at room temperature for one hour.

antibody [10] = test: Antibody aggregation by SDS-PAGE; type: physicochemical; details: one hour at room temperature; versus control
Experimental: as §4

insulin [11] = target: T1, insulin; test: Stressed aging test of insulin-DES formulations (transmittance); type: physicochemical; details: 50 hours at 37 C with constant shaking
Experimental: Successful dissolution of insulin was determined by the turbidity of the formulation, assessed by converting absorbance at 540 nm to transmittance.^16 The percent transmittance threshold for the successful formulation was set at 80% as this was the mean transmittance for the clinical comparator (Humalog). Low transmittance values are indicative of insoluble insulin aggregates. All but two formulations met this criterion (FIG. 13). To further screen the remaining DES formulations, a stressed aging test was performed to determine their stability for 50 hours at 37° C. with constant shaking.
(§5) The insulin-DES formations were first analyzed for initial transmittance to confirm that there was no insulin aggregation immediately after formulation preparation. Subsequently, formulations that passed initial screening were plated in a black-walled 96 well plate (replicates of three) and subjected to a stressed aging assay in which the plate was incubated at 37° C. with constant shaking. Absorbance readings were taken every 15 minutes for 50 hours to assess the change in transmittance over time. For cold chain stability, formulations were tested in a similar manner, without constant shaking, at 4° C. for 28 days.

dendritic cell line = test: In vitro transfection with mRNA nanoparticles coated with DES; type: cell-based; details: 4 hours incubation, flow cytometry
Experimental: IL delivery of mRNA in vitro was assessed. The in vitro transfection experiments were performed in a dendritic cell line with mRNA nanoparticles and indicate that acetylcholine hexenoic acid DES can enhance mRNA treatments. The particles were incubated with acetylcholine DES solutions to “coat” the particles. The cells were incubated with the particles for the 4 hours before analyzing with flow cytometry.

insulin [12] = target: T1, insulin; test: Cold-chain stability of insulin-DES formulations (transmittance); type: physicochemical; details: 4 C over 28 days
Experimental: as §3, §5

[13] = rat, in vivo, 10 mg/kg; cited from earlier work

Sequence of Type I Human Collagen (human) (P02452 179-1192 limits assumed, chain 1 of 2): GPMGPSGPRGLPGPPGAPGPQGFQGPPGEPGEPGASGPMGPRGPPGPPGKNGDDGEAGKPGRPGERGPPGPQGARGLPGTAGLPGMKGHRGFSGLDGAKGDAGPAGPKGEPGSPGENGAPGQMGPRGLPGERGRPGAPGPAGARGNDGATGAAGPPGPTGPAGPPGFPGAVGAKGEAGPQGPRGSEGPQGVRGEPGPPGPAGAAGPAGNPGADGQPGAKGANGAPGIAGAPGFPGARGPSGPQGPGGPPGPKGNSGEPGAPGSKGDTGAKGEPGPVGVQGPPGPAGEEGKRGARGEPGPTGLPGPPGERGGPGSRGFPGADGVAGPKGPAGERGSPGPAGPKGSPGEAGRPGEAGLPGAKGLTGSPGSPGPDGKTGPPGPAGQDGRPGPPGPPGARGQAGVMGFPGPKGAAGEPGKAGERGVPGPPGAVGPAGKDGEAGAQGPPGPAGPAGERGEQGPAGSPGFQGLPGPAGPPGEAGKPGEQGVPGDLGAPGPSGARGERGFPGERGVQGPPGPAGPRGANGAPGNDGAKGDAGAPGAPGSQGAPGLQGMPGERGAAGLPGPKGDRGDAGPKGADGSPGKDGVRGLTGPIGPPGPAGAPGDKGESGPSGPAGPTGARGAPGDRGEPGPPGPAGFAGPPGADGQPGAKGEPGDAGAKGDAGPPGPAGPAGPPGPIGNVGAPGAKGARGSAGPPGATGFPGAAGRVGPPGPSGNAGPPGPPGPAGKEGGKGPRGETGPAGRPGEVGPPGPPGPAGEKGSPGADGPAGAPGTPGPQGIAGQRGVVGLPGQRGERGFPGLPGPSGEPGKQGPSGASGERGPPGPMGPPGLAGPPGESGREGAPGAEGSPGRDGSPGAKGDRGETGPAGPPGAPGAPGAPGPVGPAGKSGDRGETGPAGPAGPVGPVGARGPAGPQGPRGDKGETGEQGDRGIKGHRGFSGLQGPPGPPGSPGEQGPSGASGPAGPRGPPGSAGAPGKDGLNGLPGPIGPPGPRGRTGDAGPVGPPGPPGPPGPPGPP
Sequence of Type I Human Collagen (human) (P08123 91-1104 limits assumed, chain 2 of 2, further chain): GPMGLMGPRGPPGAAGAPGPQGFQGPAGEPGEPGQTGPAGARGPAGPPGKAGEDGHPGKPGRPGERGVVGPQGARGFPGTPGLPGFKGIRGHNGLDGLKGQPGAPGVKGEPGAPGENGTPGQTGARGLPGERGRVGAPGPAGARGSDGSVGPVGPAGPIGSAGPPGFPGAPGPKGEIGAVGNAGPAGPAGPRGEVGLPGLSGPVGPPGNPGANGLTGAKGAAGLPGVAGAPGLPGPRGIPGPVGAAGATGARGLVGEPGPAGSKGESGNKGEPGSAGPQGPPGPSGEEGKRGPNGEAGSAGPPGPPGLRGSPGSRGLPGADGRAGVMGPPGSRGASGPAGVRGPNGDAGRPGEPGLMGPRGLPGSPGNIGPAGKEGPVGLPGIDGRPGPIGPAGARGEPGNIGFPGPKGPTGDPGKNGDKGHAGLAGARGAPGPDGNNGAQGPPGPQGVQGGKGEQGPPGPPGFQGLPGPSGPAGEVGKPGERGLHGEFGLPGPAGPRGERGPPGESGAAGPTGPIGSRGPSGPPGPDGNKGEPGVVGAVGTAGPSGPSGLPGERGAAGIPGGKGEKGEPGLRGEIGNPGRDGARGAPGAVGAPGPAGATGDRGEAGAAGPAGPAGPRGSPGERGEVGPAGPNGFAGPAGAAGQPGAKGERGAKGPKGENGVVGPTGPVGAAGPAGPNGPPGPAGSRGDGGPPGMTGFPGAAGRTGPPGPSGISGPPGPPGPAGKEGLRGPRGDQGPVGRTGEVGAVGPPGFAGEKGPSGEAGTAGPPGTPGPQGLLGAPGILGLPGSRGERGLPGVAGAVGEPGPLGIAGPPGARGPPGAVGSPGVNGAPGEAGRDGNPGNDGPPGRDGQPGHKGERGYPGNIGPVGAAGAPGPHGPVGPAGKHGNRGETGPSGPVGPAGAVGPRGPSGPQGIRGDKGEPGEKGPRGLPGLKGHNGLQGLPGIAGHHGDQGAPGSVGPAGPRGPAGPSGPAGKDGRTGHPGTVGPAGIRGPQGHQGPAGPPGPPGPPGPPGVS
Sequence of Cy 5.5 fluorescently-labeled insulin (ligand) (P01308 25-54): as the sequence (P01308 25-54 limits assumed, species assumed) above

Substance: Cy 5.5 fluorescently-labeled insulin (ligand)
- fold average polarization, control (saline) over SPADE (aCH) [1]: 1.5 fold

Substance: Humalog (insulin lispro) (ligand)
- initial average particle diameter (z-avg) of the mixture with collagen [2]: 100 nm
- average particle diameter (z-avg) of the mixture with collagen over 60 min [3]: > 5000 nm

Substance: acetylcholinium glycolate DES [aCG]
- insulin secondary structure (circular dichroism curves) (insulin [4]): match the saline negative control groups
- Cmax of serum insulin, greater than the choline variant [5]: 50%

Substance: acetylcholinium hexenoate DES [aCH]
- rituximab stability by SDS-PAGE (rituximab [6]; 10% (v/v) DES): faint band further up the gel
- appropriate DES concentration for the SPADE-mAb formulation (from stability studies) (rituximab [6]; SDS-PAGE and CD stability studies): 5 % (v/v)
- rituximab stability by SDS-PAGE (rituximab [6]; all DES concentrations apart from 10% (v/v)): stable
- insulin secondary structure (circular dichroism curves) (insulin [4]): match the saline negative control groups
- non-specific insulin-collagen binding (fluorescence polarization) (Type I human collagen): inhibits non-specific insulin-collagen binding
- rituximab secondary structure by CD versus control (rituximab [7]; 10% (v/v) DES): shift in mean ellipticity
- rituximab secondary structure by CD versus control (rituximab [7]; DES concentrations other than 10% (v/v)): none of the other DES concentrations experienced this shift
- CD spectra of insulin versus control insulin in sodium phosphate buffer (insulin [8]): matched that of the control insulin
- secondary structure of the antibody (circular dichroism) (antibody [9]): not affected
- antibody aggregation (SDS-PAGE) (antibody [10]): looked the same as the control
- outcome of stressed aging test (insulin [11]): viable
- mean fluorescent intensity (GFP expression) (dendritic cell line): higher
- percent of cells expressing GFP (dendritic cell line): increased
- cold-chain stability (insulin [12]): stable through Day 28

Substance: acetylcholinium priopionate DES [aCP]
- outcome of stressed aging test (insulin [11]): viable

Substance: cholinium hexenoate DES
- CD spectra of insulin versus control insulin in sodium phosphate buffer (insulin [8]): matched that of the control insulin
- outcome of stressed aging test (insulin [11]): viable
- cold-chain stability (insulin [12]): stable through Day 28

Substance: cholinium propionate DES [CP]
- outcome of stressed aging test (insulin [11]): viable

Substance: hyaluronidase
- increase of rituximab absorption [13]: 91%

Substance: regular insulin formulated in aCH (SPADE-insulin) (from UniProt P01308 25-54; P01308 90-110) (ligand)
- initial average particle diameter (z-avg) of the mixture with collagen [2]: 100 nm
- average particle diameter (z-avg) of the mixture with collagen over 60 min [3]: 100 nm
